Experimental data reported in patent US11298355B2 (Aerovate Therapeutics, Inc., priority 2019, dated 2022).

Assay: Thermal stability and polymorphism of imatinib salts
Format: physicochemical
Settings: imatinib salt forms

Compound	thermal stability and polymorphic forms
tartrate	suitable thermal stability and few or single polymorphic forms
malate	suitable thermal stability and few or single polymorphic forms
malonate	suitable thermal stability and few or single polymorphic forms
O=S(=O)(O)CCO [isethionate]	suitable thermal stability and few or single polymorphic forms
